Experimental data published in US20080166805A1, “Culturing human cells and tissues in an N-glycolylneuraminic acid-free environment” (The Regents of the University of California, priority 2005, published 2008).

Test system: Caco-2 cells
Assay: Endocytosis inhibition experiments (Neu5Gc uptake in Caco-2 cells)
Format: cell-based, human
Settings: 2 h pre-treatment with drug, then 3 mM Neu5Gc
Experimental: The sonicate was centrifuged at 75×g for 15 min., and the pellet obtained consisted primarily of nuclei and unbroken cells. […] A portion (20%) of the “total homogenate” fraction was taken for protein quantification and Sia analysis by DMB derivatization and HPLC analysis (as discussed below.) The remainder was centrifuged at 100,000×g for 1 h. The resulting pellet, called the “membrane” fraction, was then resuspended by sonication (15 sec.) in 200 μl of sodium acetate buffer, pH 5.5. The 100,000×g supernatant, called the “soluble” fraction was adjusted to 90% ethanol using absolute ice-cold ethanol, and placed overnight at −20° C. The flocculant precipitate, which represents the “soluble protein” fraction, was washed 3 times with 90% ice-cold ethanol and then resuspended in 200 μl of water. The supernatant fluid representing the cytosolic low molecular weight (LMW) fraction was dried and brought up in 100 μL with water prior to Sia analysis. All the Sias in these fractions were released with mild acid hydrolysis if necessary and then analyzed by HPLC after DMB derivatization. Protein quantification was performed on the total homogenate, membrane and soluble protein fractions by using the BCA protein assay kit from Pierce (Rockford, Ill.) In some experiments, the resulting data obtained for the Sia bound to the membrane fraction and to the soluble proteins were pooled and presented here as a High Molecular Weight (HMW) fraction. Sialic Acid Release, DMB Derivatization and HPLC Analysis—The bound Sias from the total homogenate, membrane and soluble protein fractions were released using 2M acetic acid hydrolysis, 3 h. at 80° C. The released Sias, or free Sias, contained in the soluble LMW fraction were passed through a Microcon® YM-10 filter (Millipore, Bedford, Mass.) prior to DMB derivatization, which was done according to Hara et al., 1989. […] The eluant was monitored by fluorescence. Quantification of Sias—For all HPLC chromatograms, the quantification of Sias was done by comparison with known quantities of DMB derivatized Neu5Gc and Neu5Ac used as standards and then reported in terms of pmoles of Sia. For total homogenate, membrane and cytosolic protein fractions, this number was expressed per mg of protein. Due to minor sample-to-sample variations in amounts and recoveries, the data in the Figures is presented as percent of Neu5Gc over total Sias, rather than as absolute amounts. Endocytosis Inhibition Experiments—Caco-2 or normal fibroblast cells were split and cultured in alpha-MEM media supplemented respectively with 20% or 15% human serum for 4 days before starting the endocytosis drug inhibition experiments in order to deplete any Neu5Gc derived from FCS. Cells were then pre-treated for 2 h. with the specific inhibitors under the same culture conditions. Fresh media containing the same amount of inhibitor and 3 mM of Neu5Gc was then added to the cells, which were incubated for 16 h or 3 days and finally harvested and fractionated as described above.

SMILES | Neu5Gc incorporation into membrane-bound glycoconjugates in the presence of inhibitor (percent of total Sia) [%] | incorporation of Neu5Gc in the TH fraction in the presence of inhibitor (percent of total Sia) [%]
N=C(N)NC(=O)c1nc(Cl)c(N)nc1N [amiloride] | 10 | –
CN(C)CCCN1c2ccccc2Sc2ccc(Cl)cc21 [chlorpromazine] | 50 | –
O=c1c(-c2ccc(O)cc2)coc2cc(O)cc(O)c12 [genistein] | 34 | 51
C[C@@H]1[C@H](O)[C@@H](C)/C=C/C=C/CC/C=C/C=C/C=C/C=C/C(O[C@H]2O[C@H](C)[C@@H](O)[C@H](N)[C@@H]2O)CC2O[C@](O)(CC(O)C(O)CCC(O)CC(O)CC(O)CC(=O)O[C@H]1C)CC(O)C2C(=O)O (stereo partly drawn) [nystatin] | 44 | ~65
